Values quoted from earlier work in patent EP3173421A1, “PEPTIDIC COMPOUNDS USEFUL AS ANTIBACTERIAL AGENTS” (Universitat de Barcelona, priority 2015, dated 2017).
Where a SMILES comes first, the peptide text is derived from it. Bridges are numbered along the chain shown (N, C = ends). Where no end group is shown, it is not given here. [ ]: non-standard residue; d: D form. The star is where a group is joined. ξ: configuration not given here. Thr(3ξ) = CC(O)[C@H](N)C(=O)O; Decanoyl = CCCCCCCCCC(=O)*; X1 = CC[C@H](C)CCCCC(=O)*; Nle = CCCC[C@H](N)C(=O)O; Dab = NCC[C@H](N)C(=O)O

Tests used:
[1] = test system: Pseudomonas aeruginosa 36a; settings: P. aeruginosa 36a; comparative examples, extracted from Rabanal et al. 2015; cited from earlier work
[2] = test system: Escherichia coli VAL 10; settings: E coli VAL10; comparative examples, extracted from Rabanal et al. 2015; cited from earlier work
[3] = test system: Escherichia coli MAC21a; settings: E coli MAC21 a; comparative examples, extracted from Rabanal et al. 2015; cited from earlier work
[4] = test system: Pseudomonas aeruginosa 38a; settings: P. aeruginosa 38a; comparative examples, extracted from Rabanal et al. 2015; cited from earlier work
[5] = test system: Pseudomonas aeruginosa ATCC 9027; settings: P. aeruginosa ATTC9027 (non-resistant); comparative examples, extracted from Rabanal et al. 2015; cited from earlier work
[6] = test system: Escherichia coli NDM-1; settings: E coli NDM-1; comparative examples, extracted from Rabanal et al. 2015; cited from earlier work
[7] = test system: Escherichia coli VAL 5; settings: E coli VAL 5; comparative examples, extracted from Rabanal et al. 2015; cited from earlier work
[8] = after 6h; kidneys versus serum; cited from earlier work
[9] = test system: Escherichia coli ATCC 8739; settings: E coli ATCC8739 (non-resistant); comparative examples, extracted from Rabanal et al. 2015; cited from earlier work
[10] = test system: Staphylococcus aureus ATTC6538; settings: S. aureus ATTC6538; comparative examples, extracted from Rabanal et al. 2015; cited from earlier work

polymyxin E (colistin) [polymyxin E (colistin) (8e)]
MIC [1]: 1 mg/L
MIC [2]: 0.5 mg/L
MIC [3]: 0.25 mg/L
MIC [4]: 1 mg/L
MIC [5]: 1 mg/L
MIC [6]: 0.5 mg/L
MIC [7]: 0.25 mg/L

CC[C@H](C)CCCCC(=O)N[C@@H](CCN)C(=O)N[C@H](C(=O)N[C@@H](CCN)C(=O)N[C@H]1CCNC(=O)[C@H](C(C)O)NC(=O)[C@H](CCN)NC(=O)[C@H](CCN)NC(=O)[C@H](CC(C)C)NC(=O)[C@@H](Cc2ccccc2)NC(=O)[C@H](CCN)NC1=O)C(C)O (stereo partly shown) [polymyxin B (8d), Polymyxin B] (X1-[Dab][Thr(3ξ)][Dab][Dab][Dab][dF]L[Dab][Dab][Thr(3ξ)]; lactam 4-C)
concentration in kidneys as multiple of the serum concentration [8]: more than 30

Decanoyl-[Dab]T[Dab]C[Dab][dF][Nle][Dab][Dab][dC] (cysteine pairing not given here) [Comparative Example 8c]
MIC [9]: 2 mg/L
MIC [10]: 4 mg/L
MIC [2]: 0.5 mg/L
MIC [3]: 0.5 mg/L
MIC [4]: 0.5 mg/L
MIC [5]: 1 mg/L
MIC [6]: 0.5 mg/L
MIC [7]: 0.5 mg/L
